The source of these data is PubChem BioAssay (NCI).

SMILES strings stand for the structures.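 Cells were grown in 96-well plates and exposed to each compound for 48 hours at five concentrations; endpoints were interpolated linearly between bracketing concentrations, or set to the highest concentration if not reached. Abbreviation: GI50, concentration required for 50% inhibition of growth. TGI marks complete inhibition of growth.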 Where a SMILES comes first, the peptide text is derived from it. The star is where a group is joined. Boc = CC(C)(C)OC(=O)* Some results are limits rather than exact numbers.

Some test systems named below: SK-MEL-28 melanoma; NCI-H460 lung; HCT-15 colon; SK-MEL-5 melanoma; M14 melanoma; NCI-H522 lung; A549 NSCLC; HCC-2998 colon; NCI/ADR-RES ovarian; COLO 205 colon.
Assay in all cases: NCI anticancer screen, dose series, 48 h

In the case of `COC(=O)C(Cc1c[nH]c2ccccc12)NC(=O)C(Cc1c[nH]c2ccccc12)NC(=O)C(Cc1c[nH]c2ccccc12)NC(=O)C(Cc1c[nH]c2ccccc12)NC(=O)C(Cc1c[nH]c2ccccc12)NC(=O)C(Cc1c[nH]c2ccccc12)NC(=O)C(Cc1c[nH]c2ccccc12)NC(=O)C(Cc1c[nH]c2ccccc12)NC(=O)OC(C)(C)C` (configuration not stated) (Boc-WWWWWWWW-OMe; configuration not given here), the TGI in the experiment on SK-MEL-28 melanoma is > 100 µM; in the experiment on NCI-H460 lung, > 100 µM; in the experiment with HCT-15 colon, > 100 µM; in the experiment with SK-MEL-5 melanoma it was 73.3 µM; with M14 melanoma, 25.1 µM; in the experiment with NCI-H522 lung it was 60.3 µM. The TGI in the experiment with A549 NSCLC and in the experiment with HCC-2998 colon was > 100 µM throughout.
Turning to `N/C(=N\N=C\c1ccc2c(c1)OCCO2)NO`, the TGI with SK-MEL-28 melanoma is > 100 µM; in the experiment with NCI-H460 lung, > 100 µM; in the experiment with NCI/ADR-RES ovarian, > 55.1 µM; in the experiment on COLO 205 colon, 38.5 µM; with HCT-15 colon it was > 100 µM; with SK-MEL-5 melanoma it was 22.4 µM. Moreover, the TGI is 42.1 µM in the experiment with NCI-H522 lung and > 82.9 µM in the experiment on A549 NSCLC.
With `O=C1c2ccc(O)c(O)c2C(=O)c2c(O)ccc(O)c21`, the TGI in the experiment on SK-MEL-28 melanoma was > 100 µM; with NCI-H460 lung it was 49.8 µM; in the experiment with COLO 205 colon it was 48.5 µM; in the experiment with HCT-15 colon, 89.1 µM; in the experiment with M14 melanoma, 54 µM; with NCI-H522 lung it was 3.03 µM. The TGI with A549 NSCLC came to 50.3 µM; in the experiment with HCC-2998 colon it was 47.9 µM.
As to `COc1ccc(/C=C2\CCC(C)C3=C2N=c2s/c(=C/c4cccc(Br)c4)c(=O)n2C3c2ccc(OC)c(OC)c2)cc1OC` (configuration not stated), the TGI in the experiment on SK-MEL-28 melanoma, in the experiment with HCT-15 colon, in the experiment with SK-MEL-5 melanoma, in the experiment with M14 melanoma and in the experiment on A549 NSCLC was > 100 µM throughout.
Turning to `O=C(NCCCCCCNC(=O)c1cc(-c2ccccc2)nc2ccccc12)c1cc(-c2ccccc2)nc2ccccc12`, the TGI in the experiment with SK-MEL-28 melanoma, in the experiment on NCI-H460 lung, in the experiment on NCI/ADR-RES ovarian, in the experiment with COLO 205 colon, in the experiment with HCT-15 colon and with SK-MEL-5 melanoma was > 100 µM in each case. Moreover, the TGI in the experiment on M14 melanoma, in the experiment on NCI-H522 lung and in the experiment on A549 NSCLC was > 100 µM each time.
As to `CC1=C(C)Cc2c(O)ccc(O)c2C1`, the TGI is 25 µM with SK-MEL-28 melanoma; > 100 µM with NCI-H460 lung; > 100 µM in the experiment on NCI/ADR-RES ovarian; 34.7 µM in the experiment with COLO 205 colon; 33.1 µM with HCT-15 colon; 27.7 µM with SK-MEL-5 melanoma. Moreover, the TGI in the experiment with M14 melanoma amounted to 30 µM; with A549 NSCLC it was 41.9 µM.
Take `C=C1C2C[C@@H]3O[C@H]4C[C@H]5O[C@@]6(C[C@@H]7O[C@]8(C[C@H](C)[C@@H]9O[C@@H]%10CC(CO)O[C@@H]%10C[C@@H]9O8)C[C@H](C)[C@@H]7O6)C[C@H]5O[C@H]4[C@H](C)[C@H]3OC(=O)C[C@H]3CC[C@@H]4OC5[C@H]6O[C@]7(CC[C@H]8CC(=C)[C@H](CC[C@@H](C[C@H]1C)O2)O8)CC6O[C@@H]5[C@@H](O7)[C@H]4O3` (some centres not stated): the TGI with NCI/ADR-RES ovarian was > 1 µM; in the experiment on COLO 205 colon, 0.000322 µM; with SK-MEL-5 melanoma, 0.00332 µM; in the experiment on M14 melanoma it was > 1 µM; in the experiment on NCI-H522 lung, < 0.0001 µM; with A549 NSCLC, 0.408 µM.
Take `Cc1nc2c(=O)n(C)ncc2[nH]1`: the TGI in the experiment on SK-MEL-28 melanoma, with NCI-H460 lung, in the experiment with NCI/ADR-RES ovarian, in the experiment on COLO 205 colon, in the experiment on HCT-15 colon and in the experiment on SK-MEL-5 melanoma was > 100 µM each time. The TGI with M14 melanoma and in the experiment on A549 NSCLC was > 100 µM throughout.
For `O=C(O)CN1C(=O)C(Cc2ccc(O)cc2)N=C(c2cccc(O)c2)c2ccccc21` (configuration not stated), the TGI with SK-MEL-28 melanoma, with NCI-H460 lung, in the experiment on HCT-15 colon, with M14 melanoma, in the experiment on NCI-H522 lung and in the experiment with A549 NSCLC was > 100 µM throughout.
As to `COc1cc2c(cc1OCCCC(=O)Nc1ccc3ccc4cccc5ccc1c3c45)N=C[C@@H]1CCCN1C2=O`, the GI50 in the experiment with SK-MEL-28 melanoma was < 0.01 µM; in the experiment with NCI-H460 lung, < 0.0484 µM; with NCI/ADR-RES ovarian, 0.0543 µM; with COLO 205 colon, 2.03 µM; with HCT-15 colon it was 0.169 µM; in the experiment with M14 melanoma, < 0.01 µM. Further, the figures for the GI50 in the experiment with NCI-H522 lung, with A549 NSCLC and with HCC-2998 colon were < 0.0133 µM, < 0.021 µM and < 0.01 µM, respectively. The TGI in the experiment with SK-MEL-28 melanoma is < 0.01 µM; in the experiment with NCI-H460 lung it was 0.31 µM; in the experiment with NCI/ADR-RES ovarian, 0.262 µM; with COLO 205 colon, 4.77 µM; in the experiment with HCT-15 colon, > 100 µM; with M14 melanoma, < 0.01 µM. Further, in the experiment with HCC-2998 colon, the TGI was < 0.0157 µM.
Turning to `BrC(c1cccc2ccccc12)c1cccc2ccccc12`, the TGI worked out at 44.6 µM with SK-MEL-28 melanoma; 30.4 µM with NCI-H460 lung; 44.2 µM in the experiment with NCI/ADR-RES ovarian; 42.5 µM with HCT-15 colon; 31.4 µM in the experiment on SK-MEL-5 melanoma; 37.6 µM in the experiment on M14 melanoma. Besides, the TGI with NCI-H522 lung is 32.3 µM; in the experiment with A549 NSCLC, > 100 µM.
For the compound `Nc1nc2c3nc(Nc4ccccc4)sc3nc(=O)n2c2sc(Nc3ccccc3)nc12`, the TGI in the experiment with SK-MEL-28 melanoma, in the experiment on COLO 205 colon, in the experiment with HCT-15 colon, in the experiment on SK-MEL-5 melanoma, in the experiment with M14 melanoma and with NCI-H522 lung was > 100 µM throughout. For the same compound, the TGI in the experiment with A549 NSCLC and with HCC-2998 colon was > 100 µM throughout.
Consider `Cn1c2ccccc2c(=O)c2cccc(C(=O)NC(CCC(N)=O)C(=O)O)c21` (configuration not stated), for which the TGI with SK-MEL-28 melanoma, in the experiment with NCI-H460 lung, in the experiment with NCI/ADR-RES ovarian, in the experiment on COLO 205 colon, with HCT-15 colon and in the experiment with SK-MEL-5 melanoma was > 100 µM in each case. For the same compound, the TGI in the experiment on M14 melanoma, in the experiment with A549 NSCLC and with HCC-2998 colon was > 100 µM in each case.
